These are literature values, as cited in US20140316796A1, “SYSTEMS, METHODS, AND COMPUTER-READABLE MEDIA FOR LIMITED DISTRIBUTION OF SPECIALTY DRUG USING A COMPUTER HUB OPERATING AT A SINGLE ACCESS POINT” (Jazz Pharmaceuticals, priority 2013, published 2014).

For data set [1] the following is noted: in vivo.
For data set [2] the following is noted: pH 4.

For the compound `CSCC[C@@H]1NC(=O)[C@H](CC(C)C)NC(=O)[C@H](CCCNC(=N)N)NC(=O)[C@H](CO)NC(=O)[C@@H]2CSSC[C@@H]3NC(=O)[C@H](CO)NC(=O)CNC(=O)[C@H]([C@@H](C)O)NC(=O)[C@H](CSSC[C@H](N)C(=O)N[C@@H](CCCCN)C(=O)NCC(=O)N[C@@H](CCCCN)C(=O)NCC(=O)N[C@@H](C)C(=O)N[C@@H](CCCCN)C(=O)N2)NC(=O)[C@H](CSSC[C@@H](C(N)=O)NC(=O)[C@H](CCCCN)NC(=O)CNC(=O)[C@H](CO)NC(=O)[C@H](CCCNC(=N)N)NC3=O)NC(=O)[C@H](CC(=O)O)NC(=O)[C@H](Cc2ccc(O)cc2)NC1=O` [ziconotide], in data set [1], the addiction potential result is reported as “does not have addiction potential”, the development of tolerance entry is “tolerance does not appear to develop” and the “effect on respiratory function” value was “does not suppress respiratory function”. The “stabilisation by methionine-containing buffer” value in data set [2] is reported as “effective in stabilizing ziconotide”.
